Key:
[1] = biological target: T1, Bifunctional epoxide hydrolase 2 (Homo sapiens) (UniProt P34913); assay: Inhibition of human recombinant soluble epoxide hydrolase at 100 nM by end-point fluorescent assay
T1 sequence (whole entry): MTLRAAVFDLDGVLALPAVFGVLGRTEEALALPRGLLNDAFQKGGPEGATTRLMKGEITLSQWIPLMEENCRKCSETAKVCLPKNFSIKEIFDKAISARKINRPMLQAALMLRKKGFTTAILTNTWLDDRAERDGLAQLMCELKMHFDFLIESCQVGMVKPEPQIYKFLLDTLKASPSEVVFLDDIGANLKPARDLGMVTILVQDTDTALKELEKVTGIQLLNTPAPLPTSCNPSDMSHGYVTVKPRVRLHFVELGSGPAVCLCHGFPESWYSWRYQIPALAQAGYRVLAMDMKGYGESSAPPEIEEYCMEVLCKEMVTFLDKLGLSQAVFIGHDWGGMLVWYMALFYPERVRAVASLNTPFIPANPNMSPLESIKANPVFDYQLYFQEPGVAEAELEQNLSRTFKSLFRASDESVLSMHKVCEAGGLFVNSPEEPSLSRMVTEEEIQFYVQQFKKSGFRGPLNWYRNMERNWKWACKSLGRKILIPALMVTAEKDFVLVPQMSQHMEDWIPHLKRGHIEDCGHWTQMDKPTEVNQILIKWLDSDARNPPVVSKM

[2] = biological target: T2, Bifunctional epoxide hydrolase 2 (Homo sapiens, UniProt P34913); assay: Inhibition of human recombinant soluble epoxide hydrolase by kinetic fluorescent assay
T2 sequence (P34913 whole entry): T1 sequence (whole entry)

| Compound | inhibition [1] | IC50 [2] |
| --- | --- | --- |
| O=C(Nc1ccccc1OC(F)(F)F)N[C@H]1CC[C@@H](Oc2ccc(F)cc2)CC1 | 2% | 100 nM |
| O=C(Nc1c(Cl)cccc1Cl)N[C@H]1CC[C@@H](Oc2ccc(F)cc2)CC1 | 1% | 940 nM |
| C[C@@H](NC(=O)NC12CC3CC(CC(C3)C1)C2)c1ccccc1 | 10% | 100 nM |
| Cc1cccc(C)c1NC(=O)N[C@H]1CC[C@@H](Oc2ccc(F)cc2)CC1 | 4% | 1200 nM |
| O=C(Nc1ccc(OC(F)(F)F)cc1)N[C@H]1CC[C@@H](Oc2ccc(F)cc2)CC1 | 84% |  |
| CN(C)c1cccc2c(S(=O)(=O)NCCNC(=O)NC34CC5CC(CC(C5)C3)C4)cccc12 | 19% | 30 nM |
| COC(=O)c1ccc(NC(=O)N[C@H]2CC[C@@H](Oc3ccc(F)cc3)CC2)cc1 | 62% | 2.9 nM |
| CC(C)c1cccc(C(C)C)c1NC(=O)N[C@H]1CC[C@@H](Oc2ccc(F)cc2)CC1 | 5% | 50500 nM |
| O=C(Nc1cccc(C(=O)O)c1)N[C@H]1CC[C@@H](Oc2ccc(F)cc2)CC1 |  | 590 nM |

Next, values leading:

| inhibition [1] | IC50 [2] | Compound |
| --- | --- | --- |
| 80% | 0.6 nM | O=C(Nc1ccc(Br)cc1)N[C@H]1CC[C@@H](Oc2ccc(F)cc2)CC1 |
| 72% | 2 nM | COC(=O)c1cccc(NC(=O)N[C@H]2CC[C@@H](Oc3ccc(F)cc3)CC2)c1 |
| 87% | 0.5 nM | O=C(NC1CCCCCC1)N[C@H]1CC[C@@H](Oc2ccc(F)cc2)CC1 |
| 76% | 1 nM | O=C(Nc1ccc(I)cc1)N[C@H]1CC[C@@H](Oc2ccc(F)cc2)CC1 |
| 82% | 1.2 nM | O=C(Nc1ccc(C(F)(F)F)cc1)N[C@H]1CC[C@@H](Oc2ccc(F)cc2)CC1 |
| 81% | 0.7 nM | O=C(Nc1ccc(Cl)cc1)N[C@H]1CC[C@@H](Oc2ccc(F)cc2)CC1 |

Reference: ChEMBL document CHEMBL1139717, “Solid-phase combinatorial approach for the optimization of soluble epoxide hydrolase inhibitors” (Bioorg Med Chem Lett, 2006)
